Laboratory results from the supplement of paper PMC9663587.

Columns and labels:
[1] = compound: CCCCOc1c(C(=O)c2c(F)cc(C)cc2F)c[nH]c2nncc1-2
[2] = compound: CCNC(=O)c1noc(-c2cc(C(C)C)c(O)cc2O)c1-c1ccc(CN2CCOCC2)cc1 [Luminespib/NVP-AUY922]
[3] = compound: CN(C)C/C=C/C(=O)NC1=CC=C(C=C1)C(=O)NC2=CC=CC(=C2)NC3=NC=NC(=C3)C4=CNC5=CC=CC=C54 [THZ-P1-2]
[4] = compound: CN(C)C/C=C/C(=O)Nc1ccc(O[C@@H]2CCC[C@@H](Nc3ncc(Cl)c(-c4c[nH]c5ccccc45)n3)C2)cc1 [BSJ-01-175]
[5] = compound: CN1CCN(CCOc2cc(OC3CCOCC3)c3c(Nc4c(Cl)ccc5c4OCO5)ncnc3c2)CC1 [Saracatinib/AZD0530]
[6] = compound: Cc1cc(Nc2ncc(Cl)c(Nc3ccccc3S(=O)(=O)C(C)C)n2)c(OC(C)C)cc1C1CCNCC1 [Ceritinib/LDK378]
[7] = compound: C=CC(=O)Nc1ccc(C(=O)Nc2[nH]nc3c2CN(C(=O)N[C@H](CN(C)C)c2ccccc2)C3(C)C)cc1 [YKL-5-124]; test: increase in dead-cell fraction, 72 h; higher = more death;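 note: breast cancer cell lines in 384-well plates, stained with Hoechst plus LIVE/DEAD far red dye and imaged, cells above an LDR intensity threshold counted dead, Hoechst-negative corpses included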
[8] = compound: CC(=O)c1c(C)c2cnc(Nc3ccc(N4CCN(CCOCCOCCOCCNC(=O)COc5cccc6c5C(=O)N(C5CCC(=O)NC5=O)C6=O)CC4)cn3)nc2n(C2CCCC2)c1=O [BSJ-03-123]; test: as above
[9] = compound: CC(=O)c1c(C)c2cnc(Nc3ccc(N4CCNCC4)cn3)nc2n(C2CCCC2)c1=O; test: as above
[10] = compound: CCN1CCN(Cc2ccc(Nc3ncc(F)c(-c4cc(F)c5nc(C)n(C(C)C)c5c4)n3)nc2)CC1; test: as above
[11] = compound: CCOc1cc2ncc(C#N)c(Nc3ccc(OCc4ccccn4)c(Cl)c3)c2cc1NC(=O)/C=C/CN(C)C [Neratinib/HKI272]; test: as above
[12] = compound: CCc1cnn2c(NCc3ccc[n+]([O-])c3)cc(N3CCCC[C@H]3CCO)nc12; test: as above
[13] = compound: CN(C)C(=O)c1cc2cnc(Nc3ccc(N4CCNCC4)cn3)nc2n1C1CCCC1 [LEE011/Ribociclib]; test: as above
[14] = compound: CN(C)C/C=C/C(=O)Nc1ccc(C(=O)N2CCC[C@@H](Nc3ncc(Cl)c(-c4c[nH]c5ccccc45)n3)C2)cc1 [THZ531]; test: as above
[15] = compound: CN(C)C/C=C/C(=O)Nc1ccc(C(=O)Nc2cccc(Nc3ncc(Cl)c(-c4c[nH]c5ccccc45)n3)c2)cc1 [THZ1]; test: as above
[16] = compound: CN1CC[C@H](c2c(O)cc(O)c3c(=O)cc(-c4ccccc4Cl)oc23)[C@H](O)C1 [Flavopiridol]; test: as above
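Throughout, for GR50, 72 h: breast cancer and non-malignant breast epithelial cell lines, Deep Dye Drop or Dye Drop imaging, nine half-log doses, GR normalized to time-zero plates and DMSO-only controls.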

HCC1954
GR50, 72 h [1]: < 0.001 µM
GR50, 72 h [2]: 0.0103 µM
GR50, 72 h [3]: 5.9 µM
GR50, 72 h [4]: 0.102 µM
GR50, 72 h [5]: 2.12 µM
GR50, 72 h [6]: 2.33 µM
increase in dead-cell fraction ([7]; 0.001 µM): 0.076
increase in dead-cell fraction ([7]; 0.003162 µM): 0.0781
increase in dead-cell fraction ([7]; 0.01 µM): 0.11
increase in dead-cell fraction ([7]; 0.03162 µM): 0.0779
increase in dead-cell fraction ([7]; 0.1 µM): 0.129
increase in dead-cell fraction ([7]; 0.3162 µM): 0.104
increase in dead-cell fraction ([7]; 1 µM): 0.102
increase in dead-cell fraction ([7]; 3.162 µM): 0.0854
increase in dead-cell fraction ([7]; 10 µM): 0.15
increase in dead-cell fraction ([8]; 0.001 µM): 0.0014
increase in dead-cell fraction ([8]; 0.003162 µM): 0.0109
increase in dead-cell fraction ([8]; 0.01 µM): 0.0001
increase in dead-cell fraction ([8]; 0.03162 µM): 0.004
increase in dead-cell fraction ([8]; 0.1 µM): 0.0138
increase in dead-cell fraction ([8]; 0.3162 µM): 0.0101
increase in dead-cell fraction ([8]; 1 µM): 0.0096
increase in dead-cell fraction ([8]; 3.162 µM): 0.0252
increase in dead-cell fraction ([8]; 10 µM): 0.141
increase in dead-cell fraction ([9]; 0.0003162 µM): -0.0089
increase in dead-cell fraction ([9]; 0.001 µM): -0.001
increase in dead-cell fraction ([9]; 0.003162 µM): -0.0131
increase in dead-cell fraction ([9]; 0.01 µM): -0.0027
increase in dead-cell fraction ([9]; 0.03162 µM): -0.0121
increase in dead-cell fraction ([9]; 0.1 µM): -0.0026
increase in dead-cell fraction ([9]; 0.3162 µM): -0.0021
increase in dead-cell fraction ([9]; 1 µM): -0.0019
increase in dead-cell fraction ([9]; 3.162 µM): 0.0043
increase in dead-cell fraction ([10]; 0.001 µM): -0.0023
increase in dead-cell fraction ([10]; 0.003162 µM): -0.0166
increase in dead-cell fraction ([10]; 0.01 µM): -0.0193
increase in dead-cell fraction ([10]; 0.03162 µM): -0.0017
increase in dead-cell fraction ([10]; 0.1 µM): -0.0058
increase in dead-cell fraction ([10]; 0.3162 µM): -0.0054
increase in dead-cell fraction ([10]; 1 µM): 0.0303
increase in dead-cell fraction ([10]; 3.162 µM): 0.11
increase in dead-cell fraction ([10]; 10 µM): 0.683
increase in dead-cell fraction ([11]; 0.0003162 µM): 0.0018
increase in dead-cell fraction ([11]; 0.001 µM): 0.0012
increase in dead-cell fraction ([11]; 0.003162 µM): 0.0264
increase in dead-cell fraction ([11]; 0.01 µM): 0.0121
increase in dead-cell fraction ([11]; 0.03162 µM): 0.0581
increase in dead-cell fraction ([11]; 0.1 µM): 0.111
increase in dead-cell fraction ([11]; 0.3162 µM): 0.17
increase in dead-cell fraction ([11]; 1 µM): 0.264
increase in dead-cell fraction ([11]; 3.162 µM): 0.42
increase in dead-cell fraction ([12]; 0.0001 µM): -0.0062
increase in dead-cell fraction ([12]; 0.0003162 µM): -0.012
increase in dead-cell fraction ([12]; 0.001 µM): -0.0086
increase in dead-cell fraction ([12]; 0.003162 µM): -0.0038
increase in dead-cell fraction ([12]; 0.01 µM): 0.0856
increase in dead-cell fraction ([12]; 0.03162 µM): 0.615
increase in dead-cell fraction ([12]; 0.1 µM): 0.704
increase in dead-cell fraction ([12]; 0.3162 µM): 0.691
increase in dead-cell fraction ([12]; 1 µM): 0.7
increase in dead-cell fraction ([13]; 0.001 µM): 0.0048
increase in dead-cell fraction ([13]; 0.003162 µM): 0.0062
increase in dead-cell fraction ([13]; 0.01 µM): -0.0065
increase in dead-cell fraction ([13]; 0.03162 µM): 0.0067
increase in dead-cell fraction ([13]; 0.1 µM): 0.006
increase in dead-cell fraction ([13]; 0.3162 µM): 0.0179
increase in dead-cell fraction ([13]; 1 µM): 0.0102
increase in dead-cell fraction ([13]; 3.162 µM): 0.0144
increase in dead-cell fraction ([13]; 10 µM): 0.0111
increase in dead-cell fraction ([14]; 0.0001 µM): 0.0002
increase in dead-cell fraction ([14]; 0.0003162 µM): 0.0055
increase in dead-cell fraction ([14]; 0.001 µM): 0.0013
increase in dead-cell fraction ([14]; 0.003162 µM): 0.0058
increase in dead-cell fraction ([14]; 0.01 µM): 0.0048
increase in dead-cell fraction ([14]; 0.03162 µM): 0.004
increase in dead-cell fraction ([14]; 0.1 µM): 0.0127
increase in dead-cell fraction ([14]; 0.3162 µM): 0.0525
increase in dead-cell fraction ([14]; 1 µM): 0.42
increase in dead-cell fraction ([15]; 0.0001 µM): -0.0011
increase in dead-cell fraction ([15]; 0.0003162 µM): 0.0018
increase in dead-cell fraction ([15]; 0.001 µM): 0.0068
increase in dead-cell fraction ([15]; 0.003162 µM): -0.0006
increase in dead-cell fraction ([15]; 0.01 µM): -0.0054
increase in dead-cell fraction ([15]; 0.03162 µM): 0.0087
increase in dead-cell fraction ([15]; 0.1 µM): 0.0688
increase in dead-cell fraction ([15]; 0.3162 µM): 0.153
increase in dead-cell fraction ([15]; 1 µM): 0.596
increase in dead-cell fraction ([16]; 0.0001 µM): 0.0057
increase in dead-cell fraction ([16]; 0.0003162 µM): 0.0003
increase in dead-cell fraction ([16]; 0.001 µM): 0.0047
increase in dead-cell fraction ([16]; 0.003162 µM): 0.0096
increase in dead-cell fraction ([16]; 0.01 µM): 0.0025
increase in dead-cell fraction ([16]; 0.03162 µM): 0.0079
increase in dead-cell fraction ([16]; 0.1 µM): 0.03
increase in dead-cell fraction ([16]; 0.3162 µM): 0.143
increase in dead-cell fraction ([16]; 1 µM): 0.733
